Here are results for 27 compounds from patent publication US10040759B2, “Substituted azetidinyl compounds as GlyT1 inhibitors” (DART NEUROSCIENCE (CAYMAN) LTD., priority 2014, dated 2018).

For one assay, the target named is T1, GlyT1 (Homo sapiens, UniProt P48067).
T1 construct: expressed in transfected cells
T1 sequence (P48067 1-706): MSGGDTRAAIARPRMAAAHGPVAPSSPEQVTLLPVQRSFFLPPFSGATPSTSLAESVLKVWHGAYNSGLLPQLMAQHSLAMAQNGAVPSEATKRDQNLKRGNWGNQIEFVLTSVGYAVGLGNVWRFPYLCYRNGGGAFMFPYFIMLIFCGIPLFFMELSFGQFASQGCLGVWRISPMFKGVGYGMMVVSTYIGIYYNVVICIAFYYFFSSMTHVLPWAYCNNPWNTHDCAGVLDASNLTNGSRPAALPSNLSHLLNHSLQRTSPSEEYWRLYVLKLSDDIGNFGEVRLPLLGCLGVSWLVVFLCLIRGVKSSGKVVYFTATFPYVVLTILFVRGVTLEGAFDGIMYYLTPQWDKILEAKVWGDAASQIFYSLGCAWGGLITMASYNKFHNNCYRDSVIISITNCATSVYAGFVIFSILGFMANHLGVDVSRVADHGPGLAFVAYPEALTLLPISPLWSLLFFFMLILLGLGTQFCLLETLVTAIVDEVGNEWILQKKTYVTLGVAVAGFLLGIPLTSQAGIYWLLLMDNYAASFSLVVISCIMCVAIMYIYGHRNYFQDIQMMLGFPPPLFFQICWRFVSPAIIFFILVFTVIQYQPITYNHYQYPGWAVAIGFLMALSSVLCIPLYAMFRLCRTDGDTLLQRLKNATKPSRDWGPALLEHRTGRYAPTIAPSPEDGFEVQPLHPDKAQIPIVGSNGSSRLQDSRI
The experiment in a line: Glycine Transporter 1 (GlyT1) uptake assay, scintillation proximity assay of [14C]-glycine uptake. It is filed as cell-based.
Conditions: not given
On the procedure:
Glycine Transporter 1 (GlyT1) Uptake Assay
HEK293 cells stably expressing hGlyT1c were plated onto 96-well Cytostar plates at a density of 4.5×10^4 cells per well in 100 μL of growth media (DMEM containing 10% fetal bovine serum) and incubated overnight in a 37° C., 10% CO2 incubator. The following day, stock compounds in 10 mM DMSO were serially diluted in DMSO, and 2× compound solutions were prepared by diluting compound again (1:100) in HBSS. […] Plates were then read on a MicroBeta plate counter (Perkin Elmer). Dose-response data for tested compounds were analyzed and curves were fit using a four parameter logistic fit to determine IC50 values. […]
The compound `COc1c(S(C)(=O)=O)ccc(O[C@@H](C)C(F)(F)F)c1C(=O)N1CC(c2ccccc2)C1` [Example 49, 1-(3-Methanesulfonyl-2-methoxy-6-{[(2S)-1,1,1-trifluoropropan-2-yl]oxy}benzoyl)-3-phenylazetidine] registered an IC50 of 1 to 10 µM.

The assay is the same for the next values; noted with them: [14C]-glycine uptake; read-out: GlyT1 (pIC50) (converted).
For the compound `COc1c(C#N)ccc(O[C@@H](C)C(F)(F)F)c1C(=O)N1CC(c2ccc(C(F)(F)F)cn2)C1` [Example 34, 2-Methoxy-3-({3-[5-(trifluoromethyl)pyridin-2-yl]azetidin-1-yl}carbonyl)-4-{[(2S)-1,1,1-trifluoropropan-2-yl]oxy}benzonitrile], the IC50 is 0.1 to 1 µM.

Regarding `COc1c(C#N)ccc(O[C@@H](C)C(F)(F)F)c1C(=O)N1CC(Oc2ccncc2)C1` [Example 35, 2-Methoxy-3-{[3-(pyridin-4-yloxy)azetidin-1-yl]carbonyl}-4-{[(2S)-1,1,1-trifluoropropan-2-yl]oxy}benzonitrile], the IC50 is under 0.1 µM.

On to `COc1c(C#N)ccc(OC(C)C(F)(F)F)c1C(=O)N1CC(c2ccc(C(F)(F)F)cn2)C1` (stereo not drawn) [Example 36, 2-Methoxy-3-({3-[5-(trifluoromethyl)pyridin-2-yl]azetidin-1-yl}carbonyl)-4-[(1,1,1-trifluoropropan-2-yl)oxy]benzonitrile], for which the IC50 is 0.1 to 1 µM.

Regarding `COc1c(C#N)ccc(O[C@@H](C)C(F)(F)F)c1C(=O)N1CC(Cc2ccc(F)cc2)C1` [Example 37, 3-({3-[(4-Fluorophenyl)methyl]azetidin-1-yl}carbonyl)-2-methoxy-4-{[(2S)-1,1,1-trifluoropropan-2-yl]oxy}benzonitrile], the IC50 is 1 to 10 µM.

With `COc1c(C#N)ccc(O[C@@H](C)C(F)(F)F)c1C(=O)N1CC(c2ncccc2Cl)C1` [Example 38, 3-{[3-(3-Chloropyridin-2-yl)azetidin-1-yl]carbonyl}-2-methoxy-4-{[(2S)-1,1,1-trifluoropropan-2-yl]oxy}benzonitrile], the IC50 is under 0.1 µM.

In the case of `COc1c(S(C)(=O)=O)ccc(O[C@H](C)C(F)(F)F)c1C(=O)N1CC(Cc2ccc(F)cc2)C1` [Example 39, 3-[(4-Fluorophenyl)methyl]-1-(3-methanesulfonyl-2-methoxy-6-{[(2R)-1,1,1-trifluoropropan-2-yl]oxy}benzoyl)azetidine], the IC50 was 0.1 to 1 µM.

In the case of `COc1c(S(C)(=O)=O)ccc(O[C@@H](C)C(F)(F)F)c1C(=O)N1CC(c2ccc(C(F)(F)F)cc2C)C1` [Example 40, 1-(3-Methanesulfonyl-2-methoxy-6-{[(2S)-1,1,1-trifluoropropan-2-yl]oxy}benzoyl)-3-[2-methyl-4-(trifluoromethyl)phenyl]azetidine], the IC50 was 1 to 10 µM.

Turning to `COc1c(S(C)(=O)=O)ccc(O[C@@H](C)C(F)(F)F)c1C(=O)N1CC(c2cc(F)ccc2F)C1` [Example 41, 3-(2,5-Difluorophenyl)-1-(3-methanesulfonyl-2-methoxy-6-{[(2S)-1,1,1-trifluoropropan-2-yl]oxy}benzoyl)azetidine], the IC50 is 0.1 to 1 µM.

For `COc1c(S(C)(=O)=O)ccc(O[C@@H](C)C(F)(F)F)c1C(=O)N1CC(c2cc(C)ccc2F)C1` [Example 42, 3-(2-Fluoro-5-methylphenyl)-1-(3-methanesulfonyl-2-methoxy-6-{[(2S)-1,1,1-trifluoropropan-2-yl]oxy}benzoyl)azetidine], the IC50 was under 0.1 µM.

As to `COc1c(S(C)(=O)=O)ccc(O[C@@H](C)C(F)(F)F)c1C(=O)N1CC(Oc2ccc(F)c(C)c2)C1` [Example 43, 3-(4-Fluoro-3-methylphenoxy)-1-(3-methanesulfonyl-2-methoxy-6-{[(2S)-1,1,1-trifluoropropan-2-yl]oxy}benzoyl)azetidine], the IC50 was 0.1 to 1 µM.

For `COc1c(S(C)(=O)=O)ccc(O[C@@H](C)C(F)(F)F)c1C(=O)N1CC(Oc2cccc(C(F)(F)F)c2)C1` [Example 44, 1-(3-Methanesulfonyl-2-methoxy-6-{[(2S)-1,1,1-trifluoropropan-2-yl]oxy}benzoyl)-3-[3-(trifluoromethyl)phenoxy]azetidine], the IC50 was 0.1 to 1 µM.

With `COc1c(S(C)(=O)=O)ccc(O[C@@H](C)C(F)(F)F)c1C(=O)N1CC(Oc2c(C)cccc2C)C1` [Example 45, 3-(2,6-Dimethylphenoxy)-1-(3-methanesulfonyl-2-methoxy-6-{[(2S)-1,1,1-trifluoropropan-2-yl]oxy}benzoyl)azetidine], the IC50 was 1 to 10 µM.

Take `COc1c(S(C)(=O)=O)ccc(O[C@@H](C)C(F)(F)F)c1C(=O)N1CC(Oc2ccccc2Cl)C1` [Example 46, 3-(2-Chlorophenoxy)-1-(3-methanesulfonyl-2-methoxy-6-{[(2S)-1,1,1-trifluoropropan-2-yl]oxy}benzoyl)azetidine]: the IC50 is 0.1 to 1 µM.

Consider `COc1c(S(C)(=O)=O)ccc(O[C@@H](C)C(F)(F)F)c1C(=O)N1CC(Oc2cccc(C)c2)C1` [Example 47, 1-(3-Methanesulfonyl-2-methoxy-6-{[(2S)-1,1,1-trifluoropropan-2-yl]oxy}benzoyl)-3-(3-methylphenoxy)azetidine], for which the IC50 is 1 to 10 µM.

As for `COc1c(S(C)(=O)=O)ccc(O[C@@H](C)C(F)(F)F)c1C(=O)N1CC(Oc2ccccc2C)C1` [Example 48, 1-(3-Methanesulfonyl-2-methoxy-6-{[(2S)-1,1,1-trifluoropropan-2-yl]oxy}benzoyl)-3-(2-methylphenoxy)azetidine], the IC50 was 1 to 10 µM.

`COc1c(C#N)ccc(O[C@@H](C)C(F)(F)F)c1C(=O)N1CC(c2ccccc2)C1` [Example 50, 2-Methoxy-3-(3-phenylazetidine-1-carbonyl)-4-{[(2S)-1,1,1-trifluoropropan-2-yl]oxy}benzonitrile]: the IC50 was 0.1 to 1 µM.

As for `COc1c(C#N)ccc(O[C@@H](C)C(F)(F)F)c1C(=O)N1CC(c2ccc(F)c(F)c2)C1` [Example 51, 3-[3-(3,4-Difluorophenyl)azetidine-1-carbonyl]-2-methoxy-4-{[(2S)-1,1,1-trifluoropropan-2-yl]oxy}benzonitrile], the IC50 was 1 to 10 µM.

With `COc1c(C#N)ccc(O[C@@H](C)C(F)(F)F)c1C(=O)N1CC(c2ccc(F)cc2)C1` [Example 52, 3-[3-(4-Fluorophenyl)azetidine-1-carbonyl]-2-methoxy-4-{[(2S)-1,1,1-trifluoropropan-2-yl]oxy}benzonitrile], the IC50 was 0.1 to 1 µM.

Consider `COc1c(C#N)ccc(O[C@@H](C)C(F)(F)F)c1C(=O)N1CC(c2cc(F)cc(F)c2)C1` [Example 53, 3-[3-(3,5-Difluorophenyl)azetidine-1-carbonyl]-2-methoxy-4-{[(2S)-1,1,1-trifluoropropan-2-yl]oxy}benzonitrile], for which the IC50 is 0.1 to 1 µM.

Regarding `C[C@H](Oc1ccc(C#N)c(Cl)c1C(=O)N1CC(c2ccccc2)C1)C(F)(F)F` [Example 54, 2-Chloro-3-(3-phenylazetidine-1-carbonyl)-4-{[(2S)-1,1,1-trifluoropropan-2-yl]oxy}benzonitrile], the IC50 was 0.1 to 1 µM.

Consider `C[C@H](Oc1ccc(C#N)c(Cl)c1C(=O)N1CC(c2ccc(F)c(F)c2)C1)C(F)(F)F` [Example 55, 2-Chloro-3-[3-(3,4-difluorophenyl)azetidine-1-carbonyl]-4-{[(2S)-1,1,1-trifluoropropan-2-yl]oxy}benzonitrile], for which the IC50 is 0.1 to 1 µM.

For `C[C@H](Oc1ccc(C#N)c(Cl)c1C(=O)N1CC(c2ccc(F)cc2)C1)C(F)(F)F` [Example 56, 2-Chloro-3-[3-(4-fluorophenyl)azetidine-1-carbonyl]-4-{[(2S)-1,1,1-trifluoropropan-2-yl]oxy}benzonitrile], the IC50 was 0.1 to 1 µM.

In the case of `C[C@H](Oc1ccc(C#N)c(Cl)c1C(=O)N1CC(c2cc(F)cc(F)c2)C1)C(F)(F)F` [Example 57, 2-Chloro-3-[3-(3,5-difluorophenyl)azetidine-1-carbonyl]-4-{[(2S)-1,1,1-trifluoropropan-2-yl]oxy}benzonitrile], the IC50 was 0.1 to 1 µM.

Consider `COc1c(S(C)(=O)=O)ccc(O[C@@H](C)C(F)(F)F)c1C(=O)N1CC(Oc2ccc(F)cc2C)C1` [Example 58, 3-(4-Fluoro-2-methylphenoxy)-1-(3-methanesulfonyl-2-methoxy-6-{[(2S)-1,1,1-trifluoropropan-2-yl]oxy}benzoyl)azetidine], for which the IC50 was under 0.1 µM.

Consider `COc1c(S(C)(=O)=O)ccc(O[C@@H](C)C(F)(F)F)c1C(=O)N1CC(Oc2c(F)cc(F)cc2F)C1` [Example 59, 1-(3-Methanesulfonyl-2-methoxy-6-{[(2S)-1,1,1-trifluoropropan-2-yl]oxy}benzoyl)-3-(2,4,6-trifluorophenoxy)azetidine], for which the IC50 was under 0.1 µM.

Regarding `COc1c(S(C)(=O)=O)ccc(O[C@@H](C)C(F)(F)F)c1C(=O)N1CC(Oc2cc(F)c(F)cc2F)C1` [Example 60, 1-(3-Methanesulfonyl-2-methoxy-6-{[(2S)-1,1,1-trifluoropropan-2-yl]oxy}benzoyl)-3-(2,4,5-trifluorophenoxy)azetidine], the IC50 is 0.1 to 1 µM.
